Experiment [1] concerns the target T1, BglX (Pseudomonas aeruginosa, UniProt Q9I311). The experiment can be described thus: inhibition assay. Format: biochemical.
The target in experiment [2] is T1, BglX. As to the kind of experiment: inhibition assay. It counts as biochemical. The conditions noted are these: nonsubstrate, weak inhibitor.

We go through four compounds from article PMC7995829 (ACS chemical biology, 2020).

Read-outs that look alike come from different tables or passages of the source. Bounds are passed on as bounds.

In general, Ki refers to a measure of affinity in units of concentration, obtained from inhibition or displacement. Higher therefore signals a looser hold on the target. On BglX [1], `OC[C@H]1NC[C@H](O)[C@@H](O)[C@@H]1O` [NOJ, 1-deoxynojirimycin] had a Ki of 4.4 ± 0.5 mM.
In turn, `OC[C@H]1O[C@@H](O[C@H]2[C@H](O)[C@@H](O)C(O)O[C@@H]2CO)[C@H](O)[C@@H](O)[C@@H]1O` (stereo partly shown) [cellobiose] gave a Ki at BglX [2] greater than 50 mM.
`OC[C@H]1O[C@@H](O[C@H]2[C@H](O)[C@@H](O)C(O)O[C@@H]2CO)[C@H](O)[C@@H](O)[C@H]1O` (stereo partly shown) [lactose] had a Ki on BglX [2] greater than 50 mM.
The same measure, in the same setting: the value for `OC1OC[C@@H](O[C@@H]2OC[C@@H](O[C@@H]3OC[C@@H](O)[C@H](O)[C@H]3O)[C@H](O)[C@H]2O)[C@H](O)[C@H]1O` (stereo partly shown) [xylotriose] was greater than 50 mM.
